Measured values reported in ChEMBL document CHEMBL3860094, “Synthesis, structure determination, and biological evaluation of phenylsulfonyl hydrazide derivatives as potential anti-inflammatory agents” (Bioorg Med Chem Lett, 2016).
pIC50: −log10 of the molar value.

Legend:
Mus musculus = species: Mus musculus; assay: Cytotoxicity against LPS-stimulated mouse RAW264.7 cells assessed as concentration required for reduction in cell viability after 24 hrs by MTT assay; format: toxicity, cell-based; conditions: raw264.7, 24 h
[1] = molecular target: T1, Prostaglandin E synthase (Mus musculus) (UniProt Q9JM51); assay: Inhibition of mPGES-1 in mouse RAW264.7 cells assessed as reduction in LPS-induced PGE2 production at 1 uM after 24 hrs relative to control; format: cell-based
T1 sequence (whole entry): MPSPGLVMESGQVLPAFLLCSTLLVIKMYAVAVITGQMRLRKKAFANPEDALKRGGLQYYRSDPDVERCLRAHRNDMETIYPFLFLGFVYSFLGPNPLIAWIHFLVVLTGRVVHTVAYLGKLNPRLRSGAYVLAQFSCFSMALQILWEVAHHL

Prostaglandin E synthase = molecular target: T2, Prostaglandin E synthase (Mus musculus, UniProt Q9JM51); assay: Inhibition of mPGES-1 in mouse RAW264.7 cells assessed as reduction in LPS-induced PGE2 production after 24 hrs; format: cell-based
T2 sequence (Q9JM51 whole entry): T1 sequence (whole entry)

[2] = molecular target: T3, Prostaglandin G/H synthase 1 (Ovis aries, UniProt P05979); assay: Inhibition of ovine COX1 by enzyme immunoassay
T3 sequence (P05979 whole entry): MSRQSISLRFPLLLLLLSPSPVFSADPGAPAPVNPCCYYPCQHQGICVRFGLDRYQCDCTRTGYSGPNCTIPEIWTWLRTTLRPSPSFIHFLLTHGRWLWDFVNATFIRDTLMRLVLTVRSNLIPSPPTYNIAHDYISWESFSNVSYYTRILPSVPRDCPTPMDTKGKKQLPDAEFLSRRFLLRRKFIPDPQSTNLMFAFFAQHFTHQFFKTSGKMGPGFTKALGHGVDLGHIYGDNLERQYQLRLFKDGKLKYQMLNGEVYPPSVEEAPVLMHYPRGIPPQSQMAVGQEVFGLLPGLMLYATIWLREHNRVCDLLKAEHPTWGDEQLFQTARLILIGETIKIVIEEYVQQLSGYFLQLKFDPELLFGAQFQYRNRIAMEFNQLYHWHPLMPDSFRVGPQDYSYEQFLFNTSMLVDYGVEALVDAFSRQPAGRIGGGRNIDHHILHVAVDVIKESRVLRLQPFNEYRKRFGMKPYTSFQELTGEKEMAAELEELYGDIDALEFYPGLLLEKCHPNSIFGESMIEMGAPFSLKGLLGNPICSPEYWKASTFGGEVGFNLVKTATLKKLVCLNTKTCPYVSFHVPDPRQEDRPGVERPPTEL

[3] = molecular target: T4, Prostaglandin G/H synthase 2 (Homo sapiens, UniProt P35354); assay: Inhibition of recombinant human COX2 by enzyme immunoassay
T4 sequence (P35354 whole entry): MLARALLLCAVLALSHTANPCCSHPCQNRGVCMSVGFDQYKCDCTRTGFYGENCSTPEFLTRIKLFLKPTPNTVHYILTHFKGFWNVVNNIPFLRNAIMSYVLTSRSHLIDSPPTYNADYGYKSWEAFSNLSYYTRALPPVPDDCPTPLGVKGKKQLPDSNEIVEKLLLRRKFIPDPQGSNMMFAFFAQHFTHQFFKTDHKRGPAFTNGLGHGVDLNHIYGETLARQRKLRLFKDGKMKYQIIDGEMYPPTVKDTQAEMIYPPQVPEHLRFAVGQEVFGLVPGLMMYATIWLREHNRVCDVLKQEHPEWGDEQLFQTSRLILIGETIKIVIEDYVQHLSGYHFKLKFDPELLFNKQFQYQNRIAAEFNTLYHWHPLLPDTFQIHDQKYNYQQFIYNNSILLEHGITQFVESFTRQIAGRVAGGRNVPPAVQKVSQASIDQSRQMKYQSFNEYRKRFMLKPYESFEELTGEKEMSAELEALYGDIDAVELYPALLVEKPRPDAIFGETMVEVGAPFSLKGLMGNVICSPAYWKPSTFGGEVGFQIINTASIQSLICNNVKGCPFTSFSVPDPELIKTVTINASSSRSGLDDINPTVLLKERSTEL

[4] = Metabolic stability in human liver microsomes assessed as compound remaining after 30 mins; format: ADME; conditions: read-out: Stability
[5] = Metabolic stability in dog liver microsomes assessed as compound remaining after 30 mins; format: ADME, Canis lupus familiaris; conditions: read-out: Stability
[6] = Metabolic stability in rat liver microsomes assessed as compound remaining after 30 mins; format: ADME; conditions: read-out: Stability
[7] = Metabolic stability in mouse liver microsomes assessed as compound remaining after 30 mins; format: ADME; conditions: read-out: Stability
[8] = molecular target: T1, Prostaglandin E synthase (Mus musculus); assay: Inhibition of mPGES-1 in mouse RAW264.7 cells assessed as reduction in LPS-induced PGE2 production at 10 uM after 24 hrs relative to control; format: cell-based
[9] = molecular target: T1, Prostaglandin E synthase (Mus musculus); assay: Inhibition of mPGES-1 in mouse RAW264.7 cells assessed as reduction in LPS-induced PGE2 production at 3 uM after 24 hrs relative to control; format: cell-based

| Compound | inhibition [1] | pIC50 (Prostaglandin E synthase) | pIC50 [2] | pIC50 [3] | remaining at 0.5 h [4] | remaining at 0.5 h [5] | remaining at 0.5 h [6] | remaining at 0.5 h [7] | inhibition [8] | inhibition [9] | Activity (Mus musculus) |
| --- | --- | --- | --- | --- | --- | --- | --- | --- | --- | --- | --- |
| COc1ccc(S(=O)(=O)N(Nc2ccccc2)C(=O)Oc2ccccc2OC)cc1 | 63% | 6.16 | < 6.00 | < 6.00 | – | – | – | – | – | – | > 10 µM |
| O=C(Oc1ccc2c(c1)CCC2)N(NS(=O)(=O)c1ccc(Cl)cc1)c1ccccc1 | 73% | 6.10 | < 6.00 | < 6.00 | – | – | – | – | – | – | > 10 µM |
| CS(=O)(=O)Nc1ccc([N+](=O)[O-])cc1OC1CCCCC1 [NS-398] | – | 8.15 | – | – | – | – | – | – | – | 86% | – |

The next lines start with results.

| inhibition [1] | pIC50 (Prostaglandin E synthase) | pIC50 [2] | pIC50 [3] | remaining at 0.5 h [4] | remaining at 0.5 h [5] | remaining at 0.5 h [6] | remaining at 0.5 h [7] | inhibition [8] | inhibition [9] | Compound | Activity (Mus musculus) |
| --- | --- | --- | --- | --- | --- | --- | --- | --- | --- | --- | --- |
| 84% | 7.22 | < 6.00 | < 6.00 | 66.6% | 48.5% | 16.3% | 42.2% | – | – | COc1ccc(S(=O)(=O)N(Nc2ccccc2)C(=O)Oc2ccc(OCc3ccccc3)cc2)cc1 | > 10 µM |
| 0% | < 5.00 | – | – | – | – | – | – | 18% | – | COc1ccc(S(=O)(=O)NN(C(=O)Oc2ccccc2OC)c2ccccc2)cc1 | > 10 µM |
| – | – | – | – | < 5% | – | – | – | – | – | COc1ccc(CCN(C)CCCC(C#N)(c2ccc(OC)c(OC)c2)C(C)C)cc1OC (stereo unspecified) | – |
| 75% | 6.26 | < 6.00 | < 6.00 | – | – | – | – | – | – | O=C(Oc1ccc2c(c1)CCC2)N(Nc1ccccc1)S(=O)(=O)c1ccc(Cl)cc1 | > 10 µM |
